Results: US10828317B2, “Method of treating bacterial infections” (priority 2016, dated 2020)
Like-named read-outs stand apart in the source and are kept apart here.

Legend:
E. coli EN002 = assay: MIC, DtoIC; type: cell-based, Escherichia coli; settings: Escherichia coli, EN002, combination didanosine+trimethoprim+uridine, Table 10; read-out: MIC
E. coli EN003 = assay: microbe, parasite or virus in culture; type: cell-based, Escherichia coli; settings: Escherichia coli, EN003, combination didanosine+trimethoprim+uridine, Table 10
K. pneumoniae EN006 = assay: MIC, WT (EN006 = EN0006, ATCC 13883); type: cell-based, Klebsiella pneumoniae
A. baumannii EN007 = assay: MIC, WT (EN007 = EN0007); type: cell-based, Acinetobacter baumannii
S. aureus EN008 = assay: MIC, Gram-positive control; type: cell-based, Staphylococcus aureus; settings: Staphylococcus aureus, read-out: MIC
E. coli EN012 = assay: MIC, WT; type: cell-based, Escherichia coli; settings: Escherichia coli, EN012, combination FdUrd+trimethoprim+uridine, Table 8; read-out: MIC
P. aeruginosa EN014 = assay: MIC, WT; type: cell-based, Pseudomonas aeruginosa; settings: Pseudomonas aeruginosa, read-out: MIC
A. baumannii EN016 = assay: MIC, WT; type: cell-based, Acinetobacter baumannii; settings: Acinetobacter baumannii, read-out: MIC
E. coli EN0134 = assay: MIC, AmpC (CMY-4); type: cell-based; settings: Escherichia coli, read-out: MIC
E. coli EN0136 = assay: MIC, ESBL (CTX-M-2); type: cell-based; settings: Escherichia coli, read-out: MIC
E. coli EN0137 = assay: MIC, ESBL (CTX-M-15); type: cell-based; settings: Escherichia coli, read-out: MIC
E. coli EN0235 = assay: microbe, parasite or virus in culture; type: cell-based; settings: Escherichia coli
K. pneumoniae EN0140 = assay: MIC, AmpC (DHA-1); type: cell-based; settings: Klebsiella pneumoniae, read-out: MIC
K. pneumoniae EN0144 = assay: MIC, MBL (VIM-1); type: cell-based; settings: Klebsiella pneumoniae, read-out: MIC
K. pneumoniae EN0145 = assay: MIC, KPC-2; type: cell-based; settings: Klebsiella pneumoniae, read-out: MIC
K. pneumoniae EN0244 = assay: MIC, colistinR; type: cell-based; settings: Klebsiella pneumoniae, read-out: MIC
K. pneumoniae EN0245 = assay: MIC, colistinR; type: cell-based; settings: Klebsiella pneumoniae, read-out: MIC
K. pneumoniae EN0249 = assay: MIC, colistinR; type: cell-based; settings: Klebsiella pneumoniae, read-out: MIC
S. flexneri APV00907 = assay: MIC and antibiogram; type: cell-based; settings: Shigella flexneri, Table 22A
From the text: Inhibition of Heliobacter is important in view of increasing resistance and its association to gastric cancer.

S. sonnei APV00908 = assay: MIC and antibiogram; type: cell-based; settings: Shigella sonnei, Table 22A
[1] = combination AZT+trimethoprim+uridine, Table 17B
[2] = combination FdUrd+trimethoprim+uridine, Table 19
[3] = combination didanosine+trimethoprim+uridine, Table 20

Compound: COc1cc(Cc2cnc(N)nc2N)cc(OC)c1OC [Trimethoprim, trimethoprim]
- MIC (E. coli EN002): 0.064 µg/mL
- MIC (E. coli EN003): 0.064 µg/mL
- MIC (K. pneumoniae EN006; Klebsiella pneumoniae, EN006, Combination 2 AZT+trimethoprim+uridine+thymidine, Table 16, read-out: MIC): 0.5 µg/mL
- MIC (K. pneumoniae EN006; Klebsiella pneumoniae, EN006, combination AZT+trimethoprim+uridine, Table 6, read-out: MIC): 0.06 µg/mL
- MIC (K. pneumoniae EN006; Klebsiella pneumoniae, EN006, combination FdUrd+trimethoprim+uridine, Table 8, read-out: MIC): 1 µg/mL
- MIC (K. pneumoniae EN006; Klebsiella pneumoniae, EN006, combination didanosine+trimethoprim+uridine, Table 10, read-out: MIC): 1 µg/mL
- MIC (K. pneumoniae EN006; [1]): 0.25 µg/mL
- MIC (K. pneumoniae EN006; [2]): 1 µg/mL
- MIC (K. pneumoniae EN006; [3]): 1 µg/mL
- MIC (A. baumannii EN007; Acinetobacter baumannii, EN007, Combination 1 AZT+trimethoprim+uridine, Table 16, read-out: MIC): > 4 µg/mL
- MIC (A. baumannii EN007; Acinetobacter baumannii, EN007, Combination 2 AZT+trimethoprim+uridine+thymidine, Table 16, read-out: MIC): > 4 µg/mL
- MIC (A. baumannii EN007; Acinetobacter baumannii, EN007, combination AZT+trimethoprim+uridine, Table 6, read-out: MIC): > 4 µg/mL
- MIC (A. baumannii EN007; Acinetobacter baumannii, EN007, combination FdUrd+trimethoprim+uridine, Table 8, read-out: MIC): > 8 µg/mL
- MIC (A. baumannii EN007; Acinetobacter baumannii, EN007, combination didanosine+trimethoprim+uridine, Table 10, read-out: MIC): > 8 µg/mL
- MIC (A. baumannii EN007; [1]): >4 µg/mL
- MIC (A. baumannii EN007; [2]): >8 µg/mL
- MIC (A. baumannii EN007; [3]): >8 µg/mL
- MIC (S. aureus EN008; EN008, Combination 1 AZT+trimethoprim+uridine, Table 16): 1 µg/mL
- MIC (S. aureus EN008; EN008, Combination 2 AZT+trimethoprim+uridine+thymidine, Table 16): > 4 µg/mL
- MIC (S. aureus EN008; EN008, combination AZT+trimethoprim+uridine, Table 6): 1 µg/mL
- MIC (S. aureus EN008; EN008, combination FdUrd+trimethoprim+uridine, Table 8): < 0.016 µg/mL
- MIC (S. aureus EN008; EN008, combination didanosine+trimethoprim+uridine, Table 10): 1 µg/mL
- MIC (E. coli EN012): 0.064 µg/mL
- MIC (P. aeruginosa EN014; EN014, Combination 1 AZT+trimethoprim+uridine, Table 16): > 4 µg/mL
- MIC (P. aeruginosa EN014; EN014, Combination 2 AZT+trimethoprim+uridine+thymidine, Table 16): > 4 µg/mL
- MIC (P. aeruginosa EN014; EN014, combination AZT+trimethoprim+uridine, Table 6): > 4 µg/mL
- MIC (P. aeruginosa EN014; EN014, combination FdUrd+trimethoprim+uridine, Table 8): > 8 µg/mL
- MIC (P. aeruginosa EN014; EN014, combination didanosine+trimethoprim+uridine, Table 10): > 8 µg/mL
- MIC (A. baumannii EN016; EN016, Combination 1 AZT+trimethoprim+uridine, Table 16): > 4 µg/mL
- MIC (A. baumannii EN016; EN016, Combination 2 AZT+trimethoprim+uridine+thymidine, Table 16): > 4 µg/mL
- MIC (A. baumannii EN016; EN016, combination AZT+trimethoprim+uridine, Table 6): > 4 µg/mL
- MIC (A. baumannii EN016; EN016, combination FdUrd+trimethoprim+uridine, Table 8): 8 µg/mL
- MIC (A. baumannii EN016; EN016, combination didanosine+trimethoprim+uridine, Table 10): > 8 µg/mL
- MIC (E. coli EN0134; EN0134, combination FdUrd+trimethoprim+uridine, Table 19): > 8 µg/mL
- MIC (E. coli EN0134; EN0134, combination didanosine+trimethoprim+uridine, Table 20): > 8 µg/mL
- MIC (E. coli EN0136; EN0136, combination FdUrd+trimethoprim+uridine, Table 19): 2 µg/mL
- MIC (E. coli EN0136; EN0136, combination didanosine+trimethoprim+uridine, Table 20): > 8 µg/mL
- MIC (E. coli EN0137; EN0137, combination FdUrd+trimethoprim+uridine, Table 19): > 8 µg/mL
- MIC (E. coli EN0137; EN0137, combination didanosine+trimethoprim+uridine, Table 20): > 8 µg/mL
- MIC (E. coli EN0235; EN0235, combination FdUrd+trimethoprim+uridine, Table 19): 0.125 µg/mL
- MIC (E. coli EN0235; EN0235, combination didanosine+trimethoprim+uridine, Table 20): 0.25 µg/mL
- MIC (K. pneumoniae EN0140; EN0140, combination AZT+trimethoprim+uridine, Table 17B): 1 µg/mL
- MIC (K. pneumoniae EN0140; EN0140, combination FdUrd+trimethoprim+uridine, Table 19): > 8 µg/mL
- MIC (K. pneumoniae EN0140; EN0140, combination didanosine+trimethoprim+uridine, Table 20): > 8 µg/mL
- MIC (K. pneumoniae EN0144; EN0144, combination AZT+trimethoprim+uridine, Table 17B): 1 µg/mL
- MIC (K. pneumoniae EN0144; EN0144, combination FdUrd+trimethoprim+uridine, Table 19): > 8 µg/mL
- MIC (K. pneumoniae EN0144; EN0144, combination didanosine+trimethoprim+uridine, Table 20): > 8 µg/mL
- MIC (K. pneumoniae EN0145; EN0145, combination AZT+trimethoprim+uridine, Table 17B): 2 µg/mL
- MIC (K. pneumoniae EN0145; EN0145, combination FdUrd+trimethoprim+uridine, Table 19): > 8 µg/mL
- MIC (K. pneumoniae EN0145; EN0145, combination didanosine+trimethoprim+uridine, Table 20): > 8 µg/mL
- MIC (K. pneumoniae EN0244; EN0244, combination AZT+trimethoprim+uridine, Table 17B): 0.5 µg/mL
- MIC (K. pneumoniae EN0244; EN0244, combination FdUrd+trimethoprim+uridine, Table 19): > 8 µg/mL
- MIC (K. pneumoniae EN0244; EN0244, combination didanosine+trimethoprim+uridine, Table 20): > 8 µg/mL
- MIC (K. pneumoniae EN0245; EN0245, combination AZT+trimethoprim+uridine, Table 17B): 1 µg/mL
- MIC (K. pneumoniae EN0245; EN0245, combination FdUrd+trimethoprim+uridine, Table 19): > 8 µg/mL
- MIC (K. pneumoniae EN0245; EN0245, combination didanosine+trimethoprim+uridine, Table 20): > 8 µg/mL
- MIC (K. pneumoniae EN0249; EN0249, combination AZT+trimethoprim+uridine, Table 17B): 1 µg/mL
- MIC (K. pneumoniae EN0249; EN0249, combination FdUrd+trimethoprim+uridine, Table 19): > 8 µg/mL
- MIC (K. pneumoniae EN0249; EN0249, combination didanosine+trimethoprim+uridine, Table 20): > 8 µg/mL
- MIC (S. flexneri APV00907; APV00907, combination AZT+trimethoprim+uridine): 2 µg/mL
- MIC (S. flexneri APV00907; APV00907, combination FdUrd+trimethoprim+uridine): > 8 µg/mL
- MIC (S. sonnei APV00908; APV00908, combination AZT+trimethoprim+uridine): 0.03 µg/mL
- MIC (S. sonnei APV00908; APV00908, combination FdUrd+trimethoprim+uridine): > 8 µg/mL
